Activity calls are given as the source filed them. The calls are words filed in the database; no cut-off is given here.
Tests used:
[1] = molecular target: T1, Pancreatic triacylglycerol lipase (Homo sapiens) (UniProt P16233); test: Inhibition of pancreatic lipase assessed as effect on oleic acid release from triolein at 1 mg/mL relative to control
T1 sequence (whole entry): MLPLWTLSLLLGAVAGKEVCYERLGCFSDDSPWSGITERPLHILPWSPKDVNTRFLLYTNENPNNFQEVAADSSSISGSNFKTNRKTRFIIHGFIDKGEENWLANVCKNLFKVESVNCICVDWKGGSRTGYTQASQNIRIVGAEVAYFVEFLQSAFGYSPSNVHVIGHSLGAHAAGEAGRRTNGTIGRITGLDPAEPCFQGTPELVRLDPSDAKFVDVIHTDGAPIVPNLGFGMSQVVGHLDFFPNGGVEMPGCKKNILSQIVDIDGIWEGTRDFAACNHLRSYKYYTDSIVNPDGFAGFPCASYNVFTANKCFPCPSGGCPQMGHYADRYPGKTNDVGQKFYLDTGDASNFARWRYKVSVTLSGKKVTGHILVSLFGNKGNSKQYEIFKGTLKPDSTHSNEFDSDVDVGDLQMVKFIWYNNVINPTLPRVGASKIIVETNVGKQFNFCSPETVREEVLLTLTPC

[2] = molecular target: T1, Pancreatic triacylglycerol lipase (Homo sapiens); test: Inhibition of pancreatic lipase assessed as effect on oleic acid release from triolein relative to control
[3] = molecular target: T1, Pancreatic triacylglycerol lipase (Homo sapiens); test: Inhibition of pancreatic lipase assessed as effect on oleic acid release from triolein at 0.12 mg/mL relative to control
[4] = molecular target: T1, Pancreatic triacylglycerol lipase (Homo sapiens); test: Inhibition of pancreatic lipase assessed as effect on oleic acid release from triolein at 0.005 mg/mL relative to control

Compound	Activity [1]	other results
C[C@@H]1O[C@@H](O[C@H]2[C@H](O[C@H]3CC[C@]4(C)[C@H]5CC=C6[C@@H]7CC(C)(C)CC[C@]7(C(=O)O[C@@H]7O[C@H](CO[C@@H]8O[C@H](CO)[C@@H](O)[C@H](O)[C@H]8O)[C@@H](O)[C@H](O)[C@H]7O)CC[C@@]6(C)[C@]5(C)CC[C@H]4C3(C)C)OC[C@@H](O)[C@@H]2O)[C@H](O)[C@H](O[C@@H]2OC[C@@H](O[C@@H]3O[C@H](CO)[C@@H](O[C@@H]4OC[C@@H](O)[C@H](O)[C@H]4O)[C@H](O)[C@H]3O)[C@H](O)[C@H]2O)[C@H]1O	Active	–
C[C@@H]1O[C@@H](O[C@H]2[C@H](O[C@H]3CC[C@]4(C)[C@H]5CC=C6[C@@H]7CC(C)(C)CC[C@]7(C(=O)O[C@@H]7O[C@H](CO[C@@H]8O[C@H](CO)[C@@H](O)[C@H](O)[C@H]8O)[C@@H](O)[C@H](O)[C@H]7O)CC[C@@]6(C)[C@]5(C)CC[C@H]4C3(C)C)OC[C@@H](O)[C@@H]2O)[C@H](O)[C@H](O[C@@H]2OC[C@@H](O)[C@H](O)[C@H]2O)[C@H]1O	Active	–
C[C@@H]1O[C@@H](O[C@H]2[C@H](O[C@H]3CC[C@]4(C)[C@H]5CC=C6[C@@H]7CC(C)(C)CC[C@]7(C(=O)O)CC[C@@]6(C)[C@]5(C)CC[C@H]4C3(C)C)OC[C@H](O)[C@@H]2O)[C@H](O)[C@H](O[C@@H]2OC[C@@H](O[C@@H]3O[C@H](CO)[C@@H](O)[C@H](O)[C@H]3O)[C@H](O)[C@H]2O)[C@H]1O	–	Activity [2]: Active; Activity [3]: Active
CCCCCCCCCCC[C@@H](C[C@@H]1OC(=O)[C@H]1CCCCCC)OC(=O)[C@H](CC(C)C)NC=O	–	Activity [4]: Active
C[C@@H]1O[C@@H](O[C@H]2[C@H](O[C@H]3CC[C@]4(C)[C@H]5CC=C6[C@H]7[C@](C(=O)O[C@@H]8O[C@H](CO[C@@H]9O[C@H](CO)[C@@H](O)[C@H](O)[C@H]9O)[C@@H](O)[C@H](O)[C@H]8O)(CC[C@@H](C)[C@@]7(C)O)CC[C@@]6(C)[C@]5(C)CC[C@H]4C3(C)C)OC[C@H](O)[C@@H]2O)[C@H](O)[C@H](O[C@@H]2O[C@H](CO)[C@@H](O)[C@H](O)[C@H]2O)[C@H]1O	Active	–

Continued, in another order:

Activity [1]	Compound	other results
Active	C[C@@H]1O[C@@H](O[C@H]2[C@H](O[C@H]3CC[C@]4(C)[C@H]5CC=C6[C@@H]7CC(C)(C)CC[C@]7(C(=O)O[C@@H]7O[C@H](CO[C@@H]8O[C@H](CO)[C@@H](O)[C@H](O)[C@H]8O)[C@@H](O)[C@H](O)[C@H]7O)CC[C@@]6(C)[C@]5(C)CC[C@H]4C3(C)C)OC[C@@H](O)[C@@H]2O)[C@H](O)[C@H](O[C@@H]2O[C@H](CO)[C@@H](O[C@@H]3O[C@H](CO)[C@@H](O)[C@H](O)[C@H]3O)[C@H](O)[C@H]2O)[C@H]1O	–
Active	C[C@@H]1O[C@@H](O[C@H]2[C@H](O[C@H]3CC[C@]4(C)[C@H]5CC=C6[C@@H]7CC(C)(C)CC[C@]7(C(=O)O[C@@H]7O[C@H](CO[C@@H]8O[C@H](CO)[C@@H](O)[C@H](O)[C@H]8O)[C@@H](O)[C@H](O)[C@H]7O)CC[C@@]6(C)[C@]5(C)CC[C@H]4C3(C)C)OC[C@@H](O)[C@@H]2O)[C@H](O)[C@H](O[C@@H]2OC[C@@H](O[C@@H]3O[C@H](CO)[C@@H](O)[C@H](O)[C@H]3O)[C@H](O)[C@H]2O)[C@H]1O	–
Active	C[C@@H]1O[C@@H](O[C@H]2[C@H](O[C@H]3CC[C@]4(C)[C@H]5CC=C6[C@@H]7CC(C)(C)CC[C@]7(C(=O)O[C@@H]7O[C@H](CO[C@@H]8O[C@H](CO)[C@@H](O)[C@H](O)[C@H]8O)[C@@H](O)[C@H](O)[C@H]7O)CC[C@@]6(C)[C@]5(C)CC[C@H]4C3(C)C)OC[C@@H](O)[C@@H]2O)[C@H](O)[C@H](O[C@@H]2O[C@H](CO)[C@@H](O)[C@H](O)[C@H]2O)[C@H]1O	–
